Converted amounts (≈) assume the structure as drawn.
How the values were obtained:
[1] = test system: interaction between human IgG and receptors Fcγ (U937 plasma-membrane); test: IgG-FcR binding inhibition on U937 plasma-membrane (ELISA)
Text: For this purpose, it has been developed an inhibition assay of the binding between human immunoglobulins (Ig) IgG and IgA and their receptors on U937 human cell line plasma-membrane.
The IgG receptors FcgRI and FcgRII (Looney R. et al., J. Immunol., 136, 1641, 1986) and IgA receptors Fca (Monteiro R. C., et al., J. Exp.Med., 171, 597-613, 1990) are constitutively express by this cell line.
Microplates for ELISA determination (Falcon Cat. No. 3912) have been treated with plasma-membrane obtained from U937 cells in variable concentrations between 0.1 and 10 μg/ml (referred to the total proteins in the plasma-membrane preparation) in PBS, 100 μl/well, for 15 hours at 4° C.
After 1 hour and 30′ at room temperature, the plates have been washed 5 times with PBS-T (PBS-Tween 0.05%) and each well has been filled with 100 μl of solutions containing biotinilated Ig at variable concentrations between 0.02 and 2 μg/ml in PBS-BSA 0.5%.
After incubation of 1 h 30′ at 37° C., a solution of streptavidin derivatized with peroxidase has been added (Sigma, Cat. No. S-5512) diluted 1:1000 in PBS-BSA 0.5%, 100 μl/well. After 1 h incubation at 37° C., the plates have been washed 5 times with PBS-T and each well has been filled with 100 μl of a 2,2′-azino-bis(3-ethylbenzthiazoline-6-sulfonic acid) (Sigma, Cat. No. A-9941) in phosphate buffer pH 5 and 0.012% hydrogen peroxide.
After about 30′ the absorbance at 405 nm of each well has been determined by a plate reader (Merck, Mod. Mios) and the results are shown in TABLE 1.
The inhibition Ig/Fc assay has been carried out using U937 plasma-membrane at 10 μg/ml concentration for immobilization on plate and biotinilated Ig at 0.4 μg/ml concentration.
IgGs have been incubated with peptides of this invention (L-PAM, D-PAM and P-PAM) and two controls, namely peptides Arg-Thr-Tyr in L configuration (named CON-L) and in D configuration (named CON-D), at concentrations between 1 to 500 μg/ml (Table 2), whereas for IgA the inhibition assays have been carried out in similar conditions with L-PAM and CON-L peptides (Table 3).
B/B0 means the inhibition percentage calculated dividing the values, in terms of OD, obtained in presence of competitors, by those obtained in absence of competitors.

[2] = test system: interaction IgE-receptor (FcεR of local mastcells); test: Passive cutaneous anaphylaxis assay (blueing lesions, Evan's Blue); assay type: in vivo; details: rat; for Extension of blueing lesion (%): intradermal with ascitic fluid IgE; for inhibition of IgE-receptor interaction in vivo (in words): passive cutaneous anaphylaxis
Description: Rat ascit fluid containing ovalbumin antigen specific IgE and with a total immunoglobulins amount of 4 mg/ml, scaled diluted in PBS, has been injected by intradermal route in a male rat of CD specie.
Intradermal injection of 50 μl volume have been done on the shaved back of the animal.
In this way it has been allowed ascitic fluid IgE to bind FcεR of local mastcells, sensitizing them.
After 24 h, 1 mg of ovalbumin and Evan's Blue dye at 2% concentration in 1 ml of PBS have been injected by endovenous route.
After 15 minutes it has been observed the presence on the rat back derma of a colored area whose extension and color intensity are proportional to the IgE antigen-specific amount injected together with the ascitic fluid.
The blueing lesions are given by the injected antigen that bind to the IgE and determined the degranulation and the release of mediators in the site of intradermal injection. Consequently a local increase of vascular permeability and a dye leak from vessel has been observed.
For the inhibition assay, the ascitic fluid containing IgE and properly diluted has been incubated with L-PAM and D-PAM peptides in total immunoglobulins-peptides molar ratio 1:2,1:20,1:200, 1:2000, 1:20.000, and 1:200.000, […]
Separate experiments for the two peptides have been performed.
In CD1 rats, 50 μl of the fluid ascitic-peptide mixture at various concentrations have been injected intradermally.
As a positive control it has been used a 50 μl injection of ascitic fluid free of peptide.
After 24 h the antigen, together with Evans's Blue dye, has been injected as described above.
After 15 minutes it has been observed that the intensity and extension of the blueing lesions on the rat back were […] to the amounts of the injected peptide and were completely absent at highest peptide concentrations.

SRBC-IgG and U937 FcRs = assay type: cell-based, human; details: for IC50 (inhibitor amount necessary to reduce at 50% the rosettes formation between SRBC-IgG and U937 FcRs): U937/SRBC-IgG 1:100, 30 minutes at 25° C.
Text: The trial has been carried on L-PAM and D-PAM peptides with the assay of rosettes formation inhibition between sheep red blood cells (SRBC) derivatized with human IgG and U937 cells (prepared as described above). Rosettes formation assay has been performed in accordance with the protocol of Lund J. et al. (FASEB J., 9, 115-119, 1995) modified as follows. The derivatized SRBC have been prepared using SRBC-tanned (tannic acid pretreated SRBC, Sigma Cat. No. R-8128) and human IgG (Sigma Cat. No. I-4506) following the provider protocol. […] No. A-9418) in DPBS (Sigma, Cat. No. D-5527). […] After 30 minutes at 25° C. rosettes have been counted, and more particularly U937 having 4 or more SRBC bound on the surface. In these conditions it has been discovered that, on the average, the 45% of treated U937 gave rosettes formation. In the above described conditions, it has been performed the inhibition assay of rosettes formation by using L-PAM , D-PAM, CON-L and CON-D peptides. A further control assay has been carried on by using IgG as inhibition positive control and not derivatized SRBC as negative control.

[3] = test system: interaction between human IgA and receptors Fcα (U937 plasma-membrane); test: IgA/FcR binding inhibition on U937 plasma-membrane (ELISA)
Text: For this purpose, it has been developed an inhibition assay of the binding between human immunoglobulins (Ig) IgG and IgA and their receptors on U937 human cell line plasma-membrane. The IgG receptors FcgRI and FcgRII (Looney R. et al., J. Immunol., 136, 1641, 1986) and IgA receptors Fca (Monteiro R. C., et al., J. Exp.Med., 171, 597-613, 1990) are constitutively express by this cell line. Microplates for ELISA determination (Falcon Cat. No. 3912) have been treated with plasma-membrane obtained from U937 cells in variable concentrations between 0.1 and 10 μg/ml (referred to the total proteins in the plasma-membrane preparation) in PBS, 100 μl/well, for 15 hours at 4° C. […] After incubation of 1 h 30' at 37° C., a solution of streptavidin derivatized with peroxidase has been added (Sigma, Cat. No. […] No. A-9941) in phosphate buffer pH 5 and 0.012% hydrogen peroxide. After about 30' the absorbance at 405 nm of each well has been determined by a plate reader (Merck, Mod. Mios) and the results are shown in TABLE 1. […] B/B0 has the above mentioned meaning.

[4] = inhibitor amount 0.025 micrograms (first line)
[5] = inhibitor amount 0.025 micrograms
[6] = inhibitor amount 2.5 micrograms
[7] = inhibitor amount 250 micrograms
[8] = inhibitor amount 2500 micrograms

Question: Which “inhibition of IgG-FcR interaction (in words)” value [1] does the source give for `C[C@H](O)[C@@H](NC(=O)[C@H](N)CCCNC(=N)N)C(=O)N[C@H](Cc1ccc(O)cc1)C(=O)NCCCC[C@H](NC(=O)[C@@H](Cc1ccc(O)cc1)NC(=O)[C@H](NC(=O)[C@H](N)CCCNC(=N)N)[C@H](C)O)C(=O)NCCCC[C@H](NC(=O)[C@H](CCCCNC(=O)[C@@H](Cc1ccc(O)cc1)NC(=O)[C@H](NC(=O)[C@H](N)CCCNC(=N)N)[C@H](C)O)NC(=O)[C@@H](Cc1ccc(O)cc1)NC(=O)[C@H](NC(=O)[C@H](N)CCCNC(=N)N)[C@H](C)O)C(=O)NCC(=O)O` [D-PAM, (H2N-D-Arg-D-Thr-D-Tyr-CO)4-(Lys)2-Lys-Gly-OH] here?
Answer: The value was “produce, in a dose-dependent manner, the same interaction level as IgG”.

Question: And the “Extension of blueing lesion (%)” value [2, 4]?
Answer: Its value is 60%.

Question: What about the “Extension of blueing lesion (%)” value [2, 5] of the same compound?
Answer: Its value is 37%.

Question: What about the “Extension of blueing lesion (%)” value [2, 6] of the same compound?
Answer: Its value is 33%.

Question: What about the “Extension of blueing lesion (%)” value ([2]; inhibitor amount 25 micrograms) of the same compound?
Answer: The value was 20%.

Question: And the “Extension of blueing lesion (%)” value [2, 7]?
Answer: The value was 15%.

Question: And the “Extension of blueing lesion (%)” value [2, 8]?
Answer: The value was 0%.

Question: What about the “inhibition of IgE-receptor interaction in vivo (in words)” value [2] of the same compound?
Answer: The value was “able to inhibit in a dose dependent manner the interaction IgE-receptor up to a complete disappearance of the inflammatory reaction”.

Question: And the “inhibition of rosettes formation (in words)” value (SRBC-IgG and U937 FcRs)?
Answer: Its value is “capable of inhibiting rosettes formation”.

Question: With `C[C@@H](O)[C@H](NC(=O)[C@@H](N)CCCNC(=N)N)C(=O)N[C@@H](Cc1ccc(O)cc1)C(=O)NCCCC[C@H](NC(=O)[C@H](Cc1ccc(O)cc1)NC(=O)[C@@H](NC(=O)[C@@H](N)CCCNC(=N)N)[C@@H](C)O)C(=O)NCCCC[C@H](NC(=O)[C@H](CCCCNC(=O)[C@H](Cc1ccc(O)cc1)NC(=O)[C@@H](NC(=O)[C@@H](N)CCCNC(=N)N)[C@@H](C)O)NC(=O)[C@H](Cc1ccc(O)cc1)NC(=O)[C@@H](NC(=O)[C@@H](N)CCCNC(=N)N)[C@@H](C)O)C(=O)NCC(=O)O` [L-PAM, (H2N-L-Arg-L-Thr-L-Tyr-CO)4-(Lys)2-Lys-Gly-OH] as the compound, how does the “inhibition of IgG-FcR interaction (in words)” value [1] read?
Answer: The value was “produce, in a dose-dependent manner, the same interaction level as IgG”.

Question: And the “Extension of blueing lesion (%)” value [2, 4]?
Answer: Its value is 65%.

Question: What about the “Extension of blueing lesion (%)” value [2, 5] of the same compound?
Answer: Its value is 50%.

Question: And the “Extension of blueing lesion (%)” value [2, 6]?
Answer: The value was 35%.

Question: And the “Extension of blueing lesion (%)” value ([2]; inhibitor amount 25 micrograms)?
Answer: The value was 0%.

Question: What about the “Extension of blueing lesion (%)” value [2, 7] of the same compound?
Answer: Its value is 0%.

Question: What about the “Extension of blueing lesion (%)” value [2, 8] of the same compound?
Answer: Its value is 0%.

Question: What about the “inhibition of IgE-receptor interaction in vivo (in words)” value [2] of the same compound?
Answer: The value was “able to inhibit in a dose dependent manner the interaction IgE-receptor up to a complete disappearance of the inflammatory reaction”.

Question: And the “inhibition of rosettes formation (in words)” value (SRBC-IgG and U937 FcRs)?
Answer: Its value is “capable of inhibiting rosettes formation”.

Question: And the “IC50 (inhibitor amount necessary to reduce at 50% the rosettes formation between SRBC-IgG and U937 FcRs)” value (SRBC-IgG and U937 FcRs)?
Answer: Its value is 78 µg/mL (≈ 36.4 µM).

Question: And the “inhibition of IgA-FcR interaction (in words)” value [3]?
Answer: The value was “specifically inhibit the interaction IgA-FcR”.

Question: “(H2N-L-Arg(Pmc)-L-Thr(OtBu)-L-Tyr(OtBU)-CO)4-(Lys)2-Lys-Gly-OH [P-PAM]” was tested. Which “inhibition of IgG-FcR interaction (in words)” value [1] did it give?
Answer: Its value is “produce, in a dose-dependent manner, the same interaction level as IgG”.

Question: What about the “inhibition of IgA-FcR interaction (in words)” value [3] of the same compound?
Answer: Its value is “specifically inhibit the interaction IgA-FcR”.

Question: What does the source list for Arg-Thr-Tyr [CON-L, reference compound]?
Answer: inhibition of IgG-FcR interaction (in words) [1]: unable to inhibit this interaction; inhibition of rosettes formation (in words) (SRBC-IgG and U937 FcRs): unable to inhibit this interaction; IC50 (inhibitor amount necessary to reduce at 50% the rosettes formation between SRBC-IgG and U937 FcRs) (SRBC-IgG and U937 FcRs): No Inhibition; inhibition of IgA-FcR interaction (in words) [3]: unable to produce the same effect

Question: How did the “inhibition of IgG-FcR interaction (in words)” value [1] turn out when “bovine serum albumin [BSA, reference compound]” was run?
Answer: The value was “unable to inhibit this interaction”.

Question: And the “inhibition of IgA-FcR interaction (in words)” value [3]?
Answer: Its value is “unable to produce the same effect”.

From patent US6426401B1, “Pharmaceutical composition containing an inhibitor of immunoglobulin-receptor interaction” (Tecnogen S.C.p.A., priority 1996, dated 2002)
